Test results published in patent publication US6864285B1, “Covalent derivatives of alkanolamides of monocarboxylic and dicarboxylic acids functionally active on the CB2 cannabinoid receptor” (Innovet Italia S.r.l., priority 1999, dated 2005).
Values after ≈ are worked out from the molar mass of the structure shown. Read-outs that look alike come from different tables or passages of the source.

Experiments:
[1] = target: T1, CB2 receptor (Rattus norvegicus, UniProt Q9QZN9); test: Binding of [3H]WIN55,212-2 to membranes of RBL-2H3+ cells; settings: cell membranes, 300 pM ligand, 90' at 30° C.; read-out: Ki CB2 receptor RBL-2H3 + cells Lig. [3H]WIN55, 212-2
T1 construct: endogenous in cells; host or cells: rat RBL-2H3+ leukemic basophilic cells
T1 sequence (Q9QZN9 1-360): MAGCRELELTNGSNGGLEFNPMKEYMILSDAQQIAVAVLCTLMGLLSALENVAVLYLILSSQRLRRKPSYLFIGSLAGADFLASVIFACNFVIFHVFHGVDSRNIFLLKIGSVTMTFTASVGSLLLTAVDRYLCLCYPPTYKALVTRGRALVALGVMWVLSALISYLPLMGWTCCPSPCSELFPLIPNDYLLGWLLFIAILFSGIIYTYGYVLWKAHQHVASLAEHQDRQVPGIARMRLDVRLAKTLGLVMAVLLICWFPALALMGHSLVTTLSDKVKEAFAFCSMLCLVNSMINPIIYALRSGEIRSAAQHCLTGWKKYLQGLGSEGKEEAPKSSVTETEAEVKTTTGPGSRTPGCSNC
Description: (§1) Effect of alkanolamide molecules on the binding of the synthetic ligands of the CB2 and CB1 cannabinoid receptors, respectively.
(§2) Rat RBL-2H3+ leukemic basophilic cells, which selectively express the cannabinoid CB2 receptor, and mouse N18TG2 neuroblastoma cells which selectively express the CB1 cannabinoid receptor were used. The cells were cultivated as described above (Facci L. et al. (1995) Proc. Natl: Acad: Sci. U.S.A. 92:: 3376-3380; Bisogno T. et al. 1997 J. Biol. Chem., 272: 3315-3323). WIN 55,212.2 was used as the selectively agonist synthetic ligand for the CB2 receptor.
HU-210 was used as the selective […] for the CB2 receptor.
(§3) [^3H]SR141716A (55 Ci/mmol) was supplied by Amersham; [^3H]WIN55,212-2 (43 Ci/mmol) was supplied by NEN. The binding tests were performed with membranes of the cells resuspended in 50 mMol Tris pH 7.0 buffer; 2.5 mMol MgCl2, 0.8 mMol EDTA; 0.05% bovine serum albumin (BSA); 0.01% ethanol, in the presence of 100 μM of phenyl-methyl-sulphonyl fluoride (PMSF-Sigma), with the use, of 300 pM of [^3H]SR141716A and of [^3H]WIN55,212-2, respectively, as the ligand.
(§4) The membranes were incubated for 90′ at 30° C. and filtered on glass microfibre filters (GFC-Whatman) and the radioactivity was detected by liquid scintillation. The specific binding was calculated with the use of either 10 μM SR141716A or 10 μM HU-210.
(§5) The Ki values were calculated by Chang-Prusoff's equation and expressed as concentration μM.

[2] = Solubility in water and in organic solvents (chemical and physical characteristics); settings: in words
[3] = physchem; settings: organic solvent or mixture
[4] = Lipid/water partition parameter RM from thin-film chromatography on silica gel; assay type: physicochemical
Method: The chemical and physical characteristics of the derivatives according to the invention were evaluated by quantitative measurement of the lipid/water partition parameter.
A useful parameter for evaluating the properties of a compound in relation to its possible absorption is in fact constituted by the coefficient of partition between the lipid phase and the aqueous phase, which is considered to be an expression of its lipophilicity and its degree of hydrophilicity. […] For the purpose of evaluating the characteristics of the derivatives of the invention, the partition parameter RM between the lipid and the aqueous phase, extrapolated from thin-film partition chromatography, was calculated; this parameter is commonly used to evaluate the lipophilic characteristics of compounds (Tomlinson E. J. Chromatogr. 1975, 113, 1) and is commonly used, for example, for local anaesthetics, in which a correlation has been shown between this parameter and biological activity (Bachrata M. et al. J. Chromatogr. 1979, 171, 29-36).
The partition parameter RM between the lipid phase and the aqueous phase was calculated both for the derivatives and for the non-substituted alkanolamides, from the Rf value obtained by thin-film chromatography on silica gel (particles of […], mean porosity 60 Å, thickness 0.25 mm on glass plate) in accordance with the formula: RM=log (1/Rf−1) and the ΔRM was obtained from the difference between the RM coefficients of the derivative and of the corresponding alkanolamide.

[5] = target: T1, CB2 receptor; test: Stimulation of cyclic AMP (cAMP) by forskolin in RBL-2H3+ cells; assay type: cell-based; settings: 1 μM forskolin
Method: Effect of alkanolamide molecules on the stimulation of cyclic AMP (cAMP) by forskolin.
The tests were performed with the aim of checking whether the binding of the molecules of the present invention to the CB2 receptor has functional significance.
It is in fact known that the function activation of the CB2 receptor brings about, at intracellular level, inhibition of the enzymatic activity of adenylate cyclase and a reduction in the levels of the second-messenger cAMP, resulting in an increase in the conductance of the channels to potassium and an inhibition of proteic phosphorylation (Childers S. R. et al. Biochem. Parmacol. 1996, 52: 819-827).
The dosages of cAMP were performed on RBL-2H3+ cells flowing together in Petri dishes with six wells (Falcon); the cells were stimulated for 10′ at 37° C. with 1 μM of forskolin (Fluka) in 400 μl of medium without serum, containing 20 mM HEPES, 0.1 mg/ml BSA and 0.1 mM 1-methyl-3-isobutyl xanthine (Sigma) and either ethanol or alkanolamide molecules with or without the addition of HU-210. After incubation, the cells were extracted and the levels of cAMP were evaluated with a suitable Amersham kit in accordance with the producer's method. The data were expressed in IC50 μM.

[6] = target: T2, CB1 receptor (Mus musculus, UniProt P47746); test: Binding of [3H]SR141716A to membranes of N18TG2 cells; settings: cell membranes, 300 pM ligand, 90' at 30° C.; read-out: Ki CB1 Receptor N18TG2 cells Lig. [3H]SR141716A
T2 construct: endogenous in cells; host or cells: mouse N18TG2 neuroblastoma cells
T2 sequence (P47746 whole entry): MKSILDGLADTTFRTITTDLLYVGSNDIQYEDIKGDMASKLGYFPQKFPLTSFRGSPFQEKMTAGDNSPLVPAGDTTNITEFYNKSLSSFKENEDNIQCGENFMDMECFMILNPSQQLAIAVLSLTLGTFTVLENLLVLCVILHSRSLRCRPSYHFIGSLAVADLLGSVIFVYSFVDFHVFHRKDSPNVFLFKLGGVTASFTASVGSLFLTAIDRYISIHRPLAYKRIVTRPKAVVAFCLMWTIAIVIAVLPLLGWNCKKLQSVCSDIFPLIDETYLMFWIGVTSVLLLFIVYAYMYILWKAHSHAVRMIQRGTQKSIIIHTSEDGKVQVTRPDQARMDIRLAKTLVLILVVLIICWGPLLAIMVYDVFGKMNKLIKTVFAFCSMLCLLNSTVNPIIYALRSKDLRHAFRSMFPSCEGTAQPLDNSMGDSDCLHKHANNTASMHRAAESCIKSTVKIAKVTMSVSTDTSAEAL
Description: as §1, §2
SR141716A was used as the selective antagonist for the CB1 receptor.
as §3, §4, §5

Ki [1]: 1 ± 0.8 nM
solubility in water [2]: slightly soluble
solubility ([3]; ethanol): 10000 µg/mL (≈ 23.3 mM)
solubility ([3]; n-octanol): 10000 µg/mL (≈ 23.3 mM)
ΔRM solvent 1 ([4]; Solvent 1: 100% ethyl acetate, RM of derivative minus RM of corresponding alkanolamide): −0.612
RM solvent 1 ([4]; Solvent 1: 100% ethyl acetate, RM=log (1/Rf−1)): 0.176
RF solvent 1 ([4]; Solvent 1: 100% ethyl acetate, silica gel): 0.40
ΔRM solvent 2 ([4]; Solvent 2: heptane:isopropanol:ethyl acetate:H2O 40:20:50:2, RM of derivative minus RM of corresponding alkanolamide): −0.175
RM solvent 2 ([4]; Solvent 2: heptane:isopropanol:ethyl acetate:H2O 40:20:50:2, RM=log (1/Rf−1)): −0.140
RF solvent 2 ([4]; Solvent 2: heptane:isopropanol:ethyl acetate:H2O 40:20:50:2, silica gel): 0.58
IC50 ([5]; 10' at 37° C., read-out: IC50 on forskolin-stimulated cAMP): 1900 nM
IC50 ([5]; + HU-210 (0.5 μM), read-out: IC50 on forskolin-stimulated cAMP with HU-210): > 20000 nM
Ki [6]: > 15000 nM
Structure (SMILES): CCCCCCCCCCCCCCCC(=O)NCCOC(=O)NCC(=O)OCC [Example 6, N-[2-[(ethoxycarbonylmethyl)aminocarbonyl]oxyethyl] hexadecanamide]
